Results on 8 molecules are retold here after patent US20220033396A1, “FURTHER HETEROAROMATIC COMPOUNDS HAVING ACTIVITY AGAINST RSV” (priority 2018, published 2022).

In one data set the test system is rgRSV224 virus. The data set can be described thus: microbe, parasite or virus in culture. To be noted: human respiratory syncytial virus, 72 h; rgRSV224 virus (MOI=1), HeLa cells, GFP expression three days post-virus exposure; averaged data of several repeat experiments; read-out: RSV HELA EC50. In kind it is cell-based.
The nature of another data set: in vitro. To be noted: human.

Consider `C[C@@H]1c2ccccc2CCN1C(=O)c1cc(C2CC2)c2nc(-c3ccc(C4C[C@@H]4C(=O)O)cc3F)cn2c1` (relative stereo) [Compound 6, Trans 2-(4-{8-Cyclopropyl-6-[(1R)-1-methyl-1,2,3,4-tetrahydroisoquinoline-2-carbonyl]imidazo[1,2-a]pyridin-2-yl}-3-fluorophenyl)cyclopropane-1-carboxylic acid], for which, in the data set with rgRSV224 virus, the concentration giving a half-maximal response (EC50) (usually the concentration at which the effect is half-maximal) was 0.103 µM. For the same molecule, the CC50 at 3 days in the data set “in vitro” stood at 56.2 µM.

With `C[C@@H]1c2ccccc2CCN1C(=O)c1cc(C2CC2)c2nc(-c3ccc(C4C[C@@H]4C(N)=O)cc3F)cn2c1` (relative stereo) [Compound 7, Trans 2-(4-{8-Cyclopropyl-6-[(1R)-1-methyl-1,2,3,4-tetrahydroisoquinoline-2-carbonyl]imidazo[1,2-a]pyridin-2-yl}-3-fluorophenyl)cyclopropane-1-carboxamide], the EC50 in the data set with rgRSV224 virus was 0.184 µM. The CC50 at 3 days in “in vitro” was found to be 65.4 µM.

Turning to `C[C@@H]1c2ccccc2CCN1C(=O)c1cc(C2CC2)c2nc(-c3ccc(C4C[C@@H]4C(=O)NS(C)(=O)=O)cc3F)cn2c1` (relative stereo) [Compound 8, Trans 2-(4-{8-Cyclopropyl-6-[(1R)-1-methyl-1,2,3,4-tetrahydroisoquinoline-2-carbonyl]imidazo[1,2-a]pyridin-2-yl}-3-fluorophenyl)-N-methanesulfonylcyclopropane-1-carboxamide], the EC50 in the data set with rgRSV224 virus is 0.793 µM. The same molecule came in with a CC50 at 3 days in “in vitro” of 69.1 µM. With `C[C@@H]1c2ccsc2CCN1C(=O)c1cc(C2CC2)c2nc(-c3ccc(N4CC[C@H](C(N)=O)C4)cc3F)cn2c1` (single isomer, unassigned) [Compound 13, (3S)-1-(4-{8-Cyclopropyl-6-[(4*R)-4-methyl-4,5,6,7-tetrahydro-thieno[3,2-c]pyridine-5-carbonyl]imidazo[1,2-a]pyridin-2-yl}-3-fluorophenyl)pyrrolidine-3-carboxamide], in the data set on rgRSV224 virus, the EC50 was found to be 0.037 µM. In “in vitro”, this molecule displayed a CC50 at 3 days of 77.1 µM. Taken in the same sequence, the figures for `CNC(=O)[C@H]1CCN(c2ccc(-c3cn4cc(C(=O)N5CCc6sccc6[C@H]5C)cc(C5CC5)c4n3)c(F)c2)C1` (single isomer, unassigned) [Compound 14, (3S)-1-(4-{8-Cyclopropyl-6-[(4*R)-4-methyl-4,5,6,7-tetrahydro-thieno[3,2-c]pyridine-5-carbonyl]imidazo[1,2-a]pyridin-2-yl}-3-fluorophenyl)-N-methylpyrrolidine-3-carboxamide] were 0.084 µM and greater than 100 µM. For the molecule `C[C@@H]1c2ccsc2CCN1C(=O)c1cc(-c2cccnc2)c2nc(-c3ccc(N4CC[C@H](C(N)=O)C4)cc3F)cn2c1` (single isomer, unassigned) [Compound 18, (3S)-1-(3-Fluoro-4-{6-[(4*R)-4-methyl-4,5,6,7-tetrahydro-thieno[3,2-c]pyridine-5-carbonyl]-8-(pyridin-3-yl)imidazo[1,2-a]pyridin-2-yl}phenyl)pyrrolidine-3-carboxamide], the EC50 with rgRSV224 virus was determined as 0.108 µM. This molecule also came in with a CC50 at 3 days in the data set “in vitro” of 21.7 µM. Molecule `C[C@@H]1c2ccccc2CCN1C(=O)c1cc(C2CC2)c2nc(-c3ccc(NC(=O)N4CC[C@@H](O)C4)cc3F)cn2n1` [Compound 37, (R)-N-(4-(8-cyclopropyl-6-((R)-1-methyl-1,2,3,4-tetrahydroisoquinoline-2-carbonyl)imidazo[1,2-b]pyridazin-2-yl)-3-fluorophenyl)-3-hydroxypyrrolidine-1-carboxamide] returned a CC50 at 3 days in “in vitro” of 32.2 µM. The same measure, in the same setting: under `CCc1cc(C(=O)N2CCc3ccccc3[C@H]2C)nn2cc(-c3ccc(NC(=O)N4CC[C@@H](O)C4)cc3F)nc12` [Compound 39, (R)-N-(4-(8-ethyl-6-((R)-1-methyl-1,2,3,4-tetrahydroisoquinoline-2-carbonyl)imidazo[1,2-b]pyridazin-2-yl)-3-fluorophenyl)-3-hydroxypyrrolidine-1-carboxamide] stands 29.3 µM.
